ChEMBL document CHEMBL4414570, “Indole-Diterpenoids with Protein Tyrosine Phosphatase Inhibitory Activities from the Marine-Derived Fungus Penicillium sp. KFD28” (J Nat Prod, 2019)
Active and inactive are the calls of the source. No cut-off for these calls is given here.

Assays:
[1] = biological target: Dual specificity protein phosphatase 3 (Homo sapiens) (UniProt P51452); test: Inhibition of recombinant human VHR expressed in Escherichia coli using p-nitrophenyl phosphate as substrate preincubated for 15 mins followed by substrate addition and measured after 60 mins
A549 = test: Cytotoxicity against human A549 cells assessed as cell viability incubated for 48 hrs by MTT assay; assay type: functional, cell-based
K562 = test: Cytotoxicity against human K562 cells assessed as cell viability incubated for 48 hrs by MTT assay; assay type: functional, cell-based
HeLa = test: Cytotoxicity against human HeLa cells assessed as cell viability incubated for 48 hrs by MTT assay; assay type: functional, cell-based
SGC-7901 = test: Cytotoxicity against human SGC7901 cells assessed as cell viability incubated for 48 hrs by MTT assay; assay type: functional, cell-based
[2] = biological target: T1, Tyrosine-protein phosphatase non-receptor type 1 (Homo sapiens, UniProt P18031); test: Inhibition of recombinant human PTP1B expressed in Escherichia coli using p-nitrophenyl phosphate as substrate preincubated for 15 mins followed by substrate addition and measured after 60 mins
T1 sequence (P18031 whole entry): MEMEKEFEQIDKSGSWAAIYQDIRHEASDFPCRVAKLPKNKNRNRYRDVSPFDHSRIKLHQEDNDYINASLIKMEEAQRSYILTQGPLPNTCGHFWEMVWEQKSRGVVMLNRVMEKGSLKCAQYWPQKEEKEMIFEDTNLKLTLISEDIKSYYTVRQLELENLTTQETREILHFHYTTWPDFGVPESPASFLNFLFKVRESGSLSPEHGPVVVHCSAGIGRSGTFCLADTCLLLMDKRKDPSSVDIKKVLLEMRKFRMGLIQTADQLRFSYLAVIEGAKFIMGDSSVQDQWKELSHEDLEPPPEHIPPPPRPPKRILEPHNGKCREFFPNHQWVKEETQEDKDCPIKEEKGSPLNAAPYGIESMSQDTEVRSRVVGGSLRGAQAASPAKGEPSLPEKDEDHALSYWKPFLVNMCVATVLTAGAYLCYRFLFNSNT

[3] = biological target: T2, Tyrosine-protein phosphatase non-receptor type 2 (Homo sapiens, UniProt P17706); test: Inhibition of recombinant human TCPTP expressed in Escherichia coli using p-nitrophenyl phosphate as substrate preincubated for 15 mins followed by substrate addition and measured after 60 mins
T2 sequence (P17706 whole entry): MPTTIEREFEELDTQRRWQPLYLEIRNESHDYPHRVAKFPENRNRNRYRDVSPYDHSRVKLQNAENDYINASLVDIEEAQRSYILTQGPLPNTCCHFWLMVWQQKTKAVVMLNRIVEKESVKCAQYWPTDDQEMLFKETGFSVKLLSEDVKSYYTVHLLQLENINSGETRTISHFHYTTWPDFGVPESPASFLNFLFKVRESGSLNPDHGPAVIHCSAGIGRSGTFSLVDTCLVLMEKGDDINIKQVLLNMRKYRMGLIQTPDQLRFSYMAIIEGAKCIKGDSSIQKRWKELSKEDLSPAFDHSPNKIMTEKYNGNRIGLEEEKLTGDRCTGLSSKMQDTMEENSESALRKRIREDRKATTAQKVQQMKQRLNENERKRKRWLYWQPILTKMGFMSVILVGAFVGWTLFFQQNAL

[4] = biological target: Receptor-type tyrosine-protein phosphatase S (Homo sapiens, UniProt Q13332); test: Inhibition of recombinant human PTPsigma expressed in Escherichia coli using p-nitrophenyl phosphate as substrate preincubated for 15 mins followed by substrate addition and measured after 60 mins
Chain of Receptor-type tyrosine-protein phosphatase S (Q13332 whole entry): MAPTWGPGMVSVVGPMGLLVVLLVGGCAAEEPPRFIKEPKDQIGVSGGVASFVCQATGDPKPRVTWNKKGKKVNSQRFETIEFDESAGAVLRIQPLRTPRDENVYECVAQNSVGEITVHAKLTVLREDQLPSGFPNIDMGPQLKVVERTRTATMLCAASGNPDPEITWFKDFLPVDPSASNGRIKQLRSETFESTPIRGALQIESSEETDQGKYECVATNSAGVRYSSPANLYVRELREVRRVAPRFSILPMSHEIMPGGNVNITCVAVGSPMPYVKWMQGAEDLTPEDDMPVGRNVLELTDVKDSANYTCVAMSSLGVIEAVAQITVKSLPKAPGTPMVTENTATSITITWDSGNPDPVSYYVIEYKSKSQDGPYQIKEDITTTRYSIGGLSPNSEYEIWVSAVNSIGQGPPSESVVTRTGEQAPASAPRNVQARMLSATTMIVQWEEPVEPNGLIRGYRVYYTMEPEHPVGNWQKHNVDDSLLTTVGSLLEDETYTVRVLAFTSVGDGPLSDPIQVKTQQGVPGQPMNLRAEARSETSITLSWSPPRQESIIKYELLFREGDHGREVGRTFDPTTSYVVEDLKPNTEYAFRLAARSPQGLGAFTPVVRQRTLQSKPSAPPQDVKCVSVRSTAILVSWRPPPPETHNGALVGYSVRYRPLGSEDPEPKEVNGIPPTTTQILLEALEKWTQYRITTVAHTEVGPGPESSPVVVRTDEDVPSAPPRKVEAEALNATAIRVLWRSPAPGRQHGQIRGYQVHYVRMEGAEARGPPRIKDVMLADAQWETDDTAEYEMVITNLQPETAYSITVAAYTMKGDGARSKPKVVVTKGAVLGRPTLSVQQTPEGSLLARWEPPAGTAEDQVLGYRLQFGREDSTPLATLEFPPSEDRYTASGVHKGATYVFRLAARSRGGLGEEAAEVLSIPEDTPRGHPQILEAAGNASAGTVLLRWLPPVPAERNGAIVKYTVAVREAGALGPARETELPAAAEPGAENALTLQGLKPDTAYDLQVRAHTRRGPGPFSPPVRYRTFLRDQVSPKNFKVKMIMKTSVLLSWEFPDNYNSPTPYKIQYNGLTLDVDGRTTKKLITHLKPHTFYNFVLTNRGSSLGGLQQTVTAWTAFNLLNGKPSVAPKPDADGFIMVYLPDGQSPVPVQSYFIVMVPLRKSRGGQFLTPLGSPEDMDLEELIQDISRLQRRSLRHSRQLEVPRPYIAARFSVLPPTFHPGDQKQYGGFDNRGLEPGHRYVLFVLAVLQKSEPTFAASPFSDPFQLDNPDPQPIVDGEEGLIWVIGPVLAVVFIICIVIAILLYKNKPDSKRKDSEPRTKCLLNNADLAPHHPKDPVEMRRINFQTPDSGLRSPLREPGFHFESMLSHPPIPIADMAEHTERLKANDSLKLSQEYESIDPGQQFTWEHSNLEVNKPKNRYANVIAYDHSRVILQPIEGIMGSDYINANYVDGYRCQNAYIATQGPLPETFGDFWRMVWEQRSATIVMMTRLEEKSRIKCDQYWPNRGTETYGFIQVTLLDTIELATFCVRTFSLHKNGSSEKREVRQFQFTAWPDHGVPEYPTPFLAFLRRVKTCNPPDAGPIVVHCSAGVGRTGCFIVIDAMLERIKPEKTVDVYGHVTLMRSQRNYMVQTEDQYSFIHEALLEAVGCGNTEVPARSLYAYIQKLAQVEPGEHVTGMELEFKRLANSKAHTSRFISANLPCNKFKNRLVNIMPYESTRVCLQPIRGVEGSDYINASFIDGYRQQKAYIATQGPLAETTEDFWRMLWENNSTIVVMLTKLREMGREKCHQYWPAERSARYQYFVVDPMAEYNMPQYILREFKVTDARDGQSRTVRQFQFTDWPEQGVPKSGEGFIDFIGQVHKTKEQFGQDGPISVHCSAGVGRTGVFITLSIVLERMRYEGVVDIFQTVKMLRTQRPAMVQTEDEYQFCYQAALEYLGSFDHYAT

Chain of Dual specificity protein phosphatase 3 (Homo sapiens) (P51452 whole entry, looked up): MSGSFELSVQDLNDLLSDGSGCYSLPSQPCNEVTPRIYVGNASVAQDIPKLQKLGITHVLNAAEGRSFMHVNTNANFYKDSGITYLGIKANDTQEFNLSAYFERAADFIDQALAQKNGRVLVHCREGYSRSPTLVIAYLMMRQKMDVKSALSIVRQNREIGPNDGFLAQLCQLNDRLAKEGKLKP

Row | inhibition [1] | IC50 [2] | IC50 [4] | Compound | Activity (A549) | Activity (K562) | Activity (HeLa) | Activity (SGC-7901) | IC50 [3]
1 | inactive |  |  | CC(C)(O)[C@@H]1CC[C@]2(C=O)[C@H](CC[C@@]3(C)[C@H]2CC[C@H]2Cc4c([nH]c5ccccc45)[C@@]23C)O1 | inactive | inactive | inactive | inactive | 
2 | inactive |  |  | CC1(C)C=C2c3cc4[nH]c5c(c4cc3C[C@@H]2C(C)(C)O1)C[C@@H]1CC[C@@]2(O)C3=CC(=O)[C@@H](C(C)(C)O)O[C@@]3(O)CC[C@]2(C)[C@@]51C | inactive | inactive | inactive | inactive | 
3 | inactive |  |  | CC(C)(O)[C@@H]1OC(=O)C=C2[C@H](CC[C@@]3(C)[C@@]2(O)CC[C@H]2Cc4c([nH]c5ccccc45)[C@@]23C)O1 | inactive | inactive | inactive | inactive | 
4 | inactive | 13 µM |  | CC(C)(O)[C@H]1O[C@@]2(O)CC[C@@]3(C)C(=CC[C@H]4Cc5c([nH]c6ccccc56)[C@@]43C)C2=CC1=O | inactive | inactive | inactive | inactive | 37 µM
5 | inactive |  |  | CC1(C)CC2=C(Cc3cc4c(cc32)NC(=O)[C@@]2(C)[C@@H](CC[C@@]3(O)C5=CC(=O)[C@@H](C(C)(C)O)O[C@H]5CC[C@@]32C)CC4=O)C(C)(C)O1 | inactive | inactive | inactive | inactive | 
6 | inactive |  |  | CC(C)(O)[C@H]1O[C@H]2CC[C@@]3(C)[C@@](O)(CC[C@@H](CC(=O)c4ccccc4N)[C@]3(C)C(=O)O)C2=CC1=O | inactive | inactive | inactive | inactive | 
7 | inactive |  |  | CC1(C)O[C@@]23CC[C@@]4(C)[C@@](O)(CC[C@H]5Cc6c([nH]c7ccccc67)[C@@]54C)C2=CC(=O)[C@H]1O3 | inactive | inactive | inactive | inactive | 
8 | inactive | 14 µM | 38 µM | CC1(C)C[C@H]2[C@@H]3C(=O)CC[C@]4(C)[C@@]5(C)c6[nH]c7ccccc7c6C[C@@H]5CC[C@@]34O[C@@]2(O)[C@@H]1O | inactive | inactive | inactive | inactive | 
9 | inactive |  |  | CC(C)(O)[C@@H]1CC=C2[C@H](CC[C@@]3(C)[C@H]2CC[C@H]2Cc4c([nH]c5ccccc45)[C@@]23C)O1 | inactive | inactive | inactive | inactive | 
10 | inactive | 27 µM |  | C[C@]12CC[C@@H]3OCC(=O)C=C3[C@]1(O)CC[C@H]1Cc3c([nH]c4ccccc34)[C@@]12C | inactive | inactive | inactive | inactive | 
11 | inactive |  |  | CC1(C)CC2=C(Cc3cc4c5c([nH]c4cc32)[C@@]2(C)[C@@H](CC[C@@]3(O)C4=CC(=O)[C@@H](C(C)(C)O)O[C@@]4(O)CC[C@@]32C)C5)C(C)(C)O1 | inactive | inactive | inactive | inactive | 

Row | Compound | inhibition [1] | IC50 [2] | IC50 [4] | Activity (A549) | Activity (K562) | Activity (HeLa) | Activity (SGC-7901) | IC50 [3]
12 | CC(C)(O)[C@H]1O[C@H]2CC[C@@]3(C)[C@@](O)(CC[C@H]4C(=O)c5c([nH]c6ccccc56)[C@@]43C)C2=CC1=O | inactive | 23 µM |  | inactive | inactive | inactive | inactive | 35 µM
